A short description of test [1]: Induction of strand scission activity in DNA assessed as ratio of 2.5 uM drug-induced to bleomycin-induced relaxation of supercoiled DNA.
Test [2] can be described thus: Induction of strand scission activity in DNA assessed as relaxation of supercoiled DNA at 2.5 ug/ml. Further details: scale not given: the % may be the effect or the level left.
Test [3] in a line: Cytotoxicity against human 9KB cells. In kind it is functional, cell-based.
The nature of test [4]: Induction of strand scission activity in DNA assessed as relaxation of supercoiled DNA at 25 ug/ml. Further details: scale not given: the % may be the effect or the level left.
Test [5] in a line: Induction of strand scission activity in DNA assessed as ratio of 25 uM drug-induced to bleomycin-induced relaxation of supercoiled DNA.

Values after ≈ are worked out from the molar mass of the structure shown. Active and inactive are the calls of the source. The rule behind the calls is not given here.

As for `COc1cc2c(c(OC)c1OC)C(=O)/C(=C/c1ccc(O)c(O)c1)O2`, the figures for the Activity in test [1] and in test [2] were 10 and 83%, respectively. The molecule further registered an IC50 in test [3] greater than 20 µg/mL.
`COc1cc2c(c(OC)c1OC)C(=O)CC(c1ccc(O)c(O)c1)O2` (racemic) [HAMILTONE B]: the Activity is 76% in test [4] and 1 in test [5]. The molecule also returned an IC50 in test [3] greater than 20 µg/mL.
On to `COc1cc(O)c(C(=O)/C=C/c2ccc(O)c(O)c2)c(OC)c1OC` [HAMILCONE], for which the Activity in test [4] was 47%; in test [5] it was 0.6. In test [3], this molecule showed an IC50 of 8 µg/mL (≈ 23.1 µM).
For `COc1ccc([C@@H]2CC(=O)c3c(cc(OC)c(O)c3OC)O2)cc1` [HAMILTONE A] the same measures were 88%, 1.1 and greater than 20 µg/mL.
`O=C(OC[C@@]12C=C[C@@H](OC(=O)c3ccccc3)[C@@H](O)[C@H]1Cc1cc(O)ccc1O2)c1ccccc1` [HEMILXANTHENE]: the result in test [4] and in test [5] was inactive. The IC50 in test [3] was found to be 10 µg/mL (≈ 21.2 µM).

The values above are taken from ChEMBL document CHEMBL1158664, “New compounds with DNA strand-scission activity from the combined leaf and stem of Uvaria hamiltonii” (J Nat Prod, 1998).
